{
  "source": "ChEMBL document CHEMBL1201862",
  "about": "“PubChem BioAssay data set” (2004)",
  "assay_in_all_cases": "NCI anticancer screen, dose series, 48 h",
  "key": {"NCI-H460": {"test_system": "NCI-H460"}, "NCI-H23": {"test_system": "NCI-H23"}, "SF-295": {"test_system": "SF-295"}, "OVCAR-8": {"test_system": "OVCAR-8"}, "SW-620": {"test_system": "SW-620"}, "SK-OV-3": {"test_system": "SK-OV-3"}, "KM-20L2": {"test_system": "KM-20L2"}, "SF-539": {"test_system": "SF-539"}, "UACC-257": {"test_system": "UACC-257"}, "LOX IMVI": {"test_system": "LOX IMVI"}, "TK-10": {"test_system": "TK-10"}, "U-251": {"test_system": "U-251"}, "SNB-19": {"test_system": "SNB-19"}, "UO-31": {"test_system": "UO-31"}, "SF-268": {"test_system": "SF-268"}, "ACHN": {"test_system": "ACHN"}, "KM12": {"test_system": "KM12"}, "A549": {"test_system": "A549"}, "HCT-15": {"test_system": "HCT-15"}, "UACC-62": {"test_system": "UACC-62"}, "DLD-1": {"test_system": "DLD-1"}, "SN12C": {"test_system": "SN12C"}, "EKVX": {"test_system": "EKVX"}, "M14": {"test_system": "M14"}, "OVCAR-5": {"test_system": "OVCAR-5"}, "M19-MEL": {"test_system": "M19-MEL"}, "786-0": {"test_system": "786-0"}, "OVCAR-4": {"test_system": "OVCAR-4"}, "DU-145": {"test_system": "DU-145"}, "HOP-62": {"test_system": "HOP-62"}, "CCRF-CEM": {"test_system": "CCRF-CEM"}, "NCI/ADR-RES": {"test_system": "NCI/ADR-RES"}, "NCI-H226": {"test_system": "NCI-H226"}, "A498": {"test_system": "A498"}, "IGROV-1": {"test_system": "IGROV-1"}, "RPMI-8226": {"test_system": "RPMI-8226"}, "PC-3": {"test_system": "PC-3"}, "OVCAR-3": {"test_system": "OVCAR-3"}, "SK-MEL-28": {"test_system": "SK-MEL-28"}, "MDA-MB-231": {"test_system": "MDA-MB-231"}, "NCI-H522": {"test_system": "NCI-H522"}, "MDA-N": {"test_system": "MDA-N"}, "HL-60": {"test_system": "HL-60"}, "T47D": {"test_system": "T47D"}, "SR": {"test_system": "SR"}, "K562": {"test_system": "K562"}, "Hs-578T": {"test_system": "Hs-578T"}, "HCT-116": {"test_system": "HCT-116"}, "RXF 393": {"test_system": "RXF 393"}, "Malme-3M": {"test_system": "Malme-3M"}, "COLO 205": {"test_system": "COLO 205"}, "MCF7": {"test_system": "MCF7"}, "BT-549": {"test_system": "BT-549"}, "HOP-92": {"test_system": "HOP-92"}, "SK-MEL-2": {"test_system": "SK-MEL-2"}, "SNB-75": {"test_system": "SNB-75"}, "MOLT-4": {"test_system": "MOLT-4"}, "MDA-MB-435": {"test_system": "MDA-MB-435"}, "CAKI-1": {"test_system": "CAKI-1"}, "HT-29": {"test_system": "HT-29"}, "SK-MEL-5": {"test_system": "SK-MEL-5"}, "HCC 2998": {"test_system": "HCC 2998"}},
  "note": "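Briefly, cells in 96-well plates were exposed to five compound concentrations for 48 h, and endpoints were estimated by linear interpolation. The concentration for 50% growth inhibition is given as GI50.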 Calls of active or inactive are those of the source. No stated cut-off is given here; in the data, active = GI50 up to about 1.1 µM and inactive = higher.",
  "data": [
    {"smiles": "C/C(=N\\NC(=O)c1cccnc1)c1cccc(/C(C)=N/NC(=O)c2cccnc2)n1", "values": [
      {"measurement": "GI50", "setting": "NCI-H460", "result": "3.41 µM (inactive)"},
      {"measurement": "GI50", "setting": "NCI-H23", "result": "7.4 µM (inactive)"},
      {"measurement": "GI50", "setting": "SF-295", "result": "4.15 µM (inactive)"},
      {"measurement": "GI50", "setting": "OVCAR-8", "result": "2.43 µM (inactive)"},
      {"measurement": "GI50", "setting": "SW-620", "result": "2.78 µM (inactive)"},
      {"measurement": "GI50", "setting": "SK-OV-3", "result": "4.14 µM (inactive)"},
      {"measurement": "GI50", "setting": "KM-20L2", "result": "2.21 µM (inactive)"},
      {"measurement": "GI50", "setting": "SF-539", "result": "2.36 µM (inactive)"},
      {"measurement": "GI50", "setting": "UACC-257", "result": "3.06 µM (inactive)"},
      {"measurement": "GI50", "setting": "LOX IMVI", "result": "2 µM (inactive)"},
      {"measurement": "GI50", "setting": "TK-10", "result": "4.67 µM (inactive)"},
      {"measurement": "GI50", "setting": "U-251", "result": "2.06 µM (inactive)"},
      {"measurement": "GI50", "setting": "SNB-19", "result": "3.56 µM (inactive)"},
      {"measurement": "GI50", "setting": "UO-31", "result": "3.81 µM (inactive)"},
      {"measurement": "GI50", "setting": "SF-268", "result": "0.867 µM (active)"},
      {"measurement": "GI50", "setting": "ACHN", "result": "1.48 µM (inactive)"},
      {"measurement": "GI50", "setting": "KM12", "result": "4.85 µM (inactive)"},
      {"measurement": "GI50", "setting": "A549", "result": "2.99 µM (inactive)"},
      {"measurement": "GI50", "setting": "HCT-15", "result": 3.99, "unit": "µM"},
      {"measurement": "GI50", "setting": "UACC-62", "result": "2.04 µM (inactive)"},
      {"measurement": "GI50", "setting": "DLD-1", "result": "1.95 µM (inactive)"},
      {"measurement": "GI50", "setting": "SN12C", "result": "4.81 µM (inactive)"},
      {"measurement": "GI50", "setting": "EKVX", "result": "3.42 µM (inactive)"},
      {"measurement": "GI50", "setting": "M14", "result": "2.85 µM (inactive)"},
      {"measurement": "GI50", "setting": "OVCAR-5", "result": "2.08 µM (inactive)"},
      {"measurement": "GI50", "setting": "M19-MEL", "result": "13.2 µM (inactive)"}
    ]},
    {"smiles": "N#CCCCC[N+]12CN3CN(CN(C3)C1)C2", "values": [
      {"measurement": "GI50", "setting": "NCI-H460", "result": "> 100 µM (inactive)"},
      {"measurement": "GI50", "setting": "NCI-H23", "result": "> 100 µM (inactive)"},
      {"measurement": "GI50", "setting": "SF-295", "result": "> 100 µM (inactive)"},
      {"measurement": "GI50", "setting": "OVCAR-8", "result": "> 100 µM (inactive)"},
      {"measurement": "GI50", "setting": "SW-620", "result": "64.6 µM (inactive)"},
      {"measurement": "GI50", "setting": "786-0", "result": "> 100 µM (inactive)"},
      {"measurement": "GI50", "setting": "OVCAR-4", "result": "> 100 µM (inactive)"},
      {"measurement": "GI50", "setting": "SK-OV-3", "result": "> 100 µM (inactive)"},
      {"measurement": "GI50", "setting": "DU-145", "result": "> 100 µM (inactive)"},
      {"measurement": "GI50", "setting": "HOP-62", "result": "> 100 µM (inactive)"},
      {"measurement": "GI50", "setting": "SF-539", "result": "22.6 µM (inactive)"},
      {"measurement": "GI50", "setting": "UACC-257", "result": "> 100 µM (inactive)"},
      {"measurement": "GI50", "setting": "LOX IMVI", "result": "32.1 µM (inactive)"},
      {"measurement": "GI50", "setting": "CCRF-CEM", "result": "64 µM (inactive)"},
      {"measurement": "GI50", "setting": "NCI/ADR-RES", "result": "> 100 µM (inactive)"},
      {"measurement": "GI50", "setting": "NCI-H226", "result": "> 100 µM (inactive)"},
      {"measurement": "GI50", "setting": "TK-10", "result": "> 100 µM (inactive)"},
      {"measurement": "GI50", "setting": "A498", "result": "> 100 µM (inactive)"},
      {"measurement": "GI50", "setting": "IGROV-1", "result": "> 100 µM (inactive)"},
      {"measurement": "GI50", "setting": "RPMI-8226", "result": "40.8 µM (inactive)"},
      {"measurement": "GI50", "setting": "PC-3", "result": "> 100 µM (inactive)"},
      {"measurement": "GI50", "setting": "U-251", "result": "> 100 µM (inactive)"},
      {"measurement": "GI50", "setting": "OVCAR-3", "result": "> 100 µM (inactive)"},
      {"measurement": "GI50", "setting": "SNB-19", "result": "> 100 µM (inactive)"},
      {"measurement": "GI50", "setting": "UO-31", "result": "> 100 µM (inactive)"},
      {"measurement": "GI50", "setting": "SF-268", "result": "> 100 µM (inactive)"},
      {"measurement": "GI50", "setting": "SK-MEL-28", "result": "> 100 µM (inactive)"},
      {"measurement": "GI50", "setting": "ACHN", "result": "> 100 µM (inactive)"},
      {"measurement": "GI50", "setting": "MDA-MB-231", "result": "> 100 µM (inactive)"},
      {"measurement": "GI50", "setting": "NCI-H522", "result": "> 100 µM (inactive)"},
      {"measurement": "GI50", "setting": "KM12", "result": "> 100 µM (inactive)"},
      {"measurement": "GI50", "setting": "MDA-N", "result": "> 100 µM (inactive)"},
      {"measurement": "GI50", "setting": "HL-60", "result": "> 100 µM (inactive)"},
      {"measurement": "GI50", "setting": "T47D", "result": "> 100 µM (inactive)"},
      {"measurement": "GI50", "setting": "SR", "result": "30.8 µM (inactive)"},
      {"measurement": "GI50", "setting": "A549", "result": "> 100 µM (inactive)"},
      {"measurement": "GI50", "setting": "HCT-15", "result": "> 100", "unit": "µM"},
      {"measurement": "GI50", "setting": "K562", "result": "> 100 µM (inactive)"},
      {"measurement": "GI50", "setting": "Hs-578T", "result": "> 100 µM (inactive)"},
      {"measurement": "GI50", "setting": "HCT-116", "result": "> 100 µM (inactive)"},
      {"measurement": "GI50", "setting": "UACC-62", "result": "> 100 µM (inactive)"},
      {"measurement": "GI50", "setting": "RXF 393", "result": "> 100 µM (inactive)"},
      {"measurement": "GI50", "setting": "Malme-3M", "result": "> 100 µM (inactive)"},
      {"measurement": "GI50", "setting": "COLO 205", "result": "> 100 µM (inactive)"},
      {"measurement": "GI50", "setting": "MCF7", "result": "45.7 µM (inactive)"},
      {"measurement": "GI50", "setting": "BT-549", "result": "> 100 µM (inactive)"},
      {"measurement": "GI50", "setting": "HOP-92", "result": "> 100 µM (inactive)"},
      {"measurement": "GI50", "setting": "SK-MEL-2", "result": "> 100 µM (inactive)"},
      {"measurement": "GI50", "setting": "SN12C", "result": "> 100 µM (inactive)"},
      {"measurement": "GI50", "setting": "SNB-75", "result": "> 100 µM (inactive)"},
      {"measurement": "GI50", "setting": "MOLT-4", "result": "> 100 µM (inactive)"},
      {"measurement": "GI50", "setting": "EKVX", "result": "> 100 µM (inactive)"},
      {"measurement": "GI50", "setting": "M14", "result": "> 100 µM (inactive)"},
      {"measurement": "GI50", "setting": "MDA-MB-435", "result": "> 100 µM (inactive)"},
      {"measurement": "GI50", "setting": "CAKI-1", "result": "> 100 µM (inactive)"},
      {"measurement": "GI50", "setting": "HT-29", "result": "> 100 µM (inactive)"},
      {"measurement": "GI50", "setting": "OVCAR-5", "result": "> 100 µM (inactive)"},
      {"measurement": "GI50", "setting": "SK-MEL-5", "result": "> 100 µM (inactive)"},
      {"measurement": "GI50", "setting": "HCC 2998", "result": "> 100 µM (inactive)"}
    ]}
  ]
}
